pIC50: −log10 of the molar value. Activity calls are given as the source filed them. No cut-off for these calls is given here.

Series [1] in a line: Volume of distribution in Kunming mouse plasma at 10 mg/kg, iv administered as single dose measured after 5 to 360 mins by HPLC analysis. It is filed as ADME, organism-based. The following applies: time 5-360 min.
The nature of series [2]: Half life in Kunming mouse plasma at 10 mg/kg, iv administered as single dose measured after 5 to 360 mins by HPLC analysis. It is filed as ADME, organism-based. The following applies: time 5-360 min.
Series [3] in a line: Tmax in Kunming mouse plasma at 10 mg/kg, iv administered as single dose measured after 5 to 360 mins by HPLC analysis. It is filed as ADME, organism-based. The following applies: time 5-360 min.
Series [4] is described as follows: Cmax in Kunming mouse plasma at 10 mg/kg, iv administered as single dose measured after 5 to 360 mins by HPLC analysis. It counts as ADME, organism-based. On the set-up: dose 10 mg/kg, time upper 360 min, time lower 5 min, route iv.
Series [5] can be described thus: AUC in Kunming mouse plasma at 10 mg/kg, iv administered as single dose measured after 5 to 360 mins by HPLC analysis. It is filed as ADME, organism-based. On the set-up: time upper 360 min, time lower 5 min, dose 10 mg/kg, route iv.
Series [6] in a line: Microsomal stability in mouse liver microsomes assessed as clearance measured at 2 ug/ml upto 60 mins in presence of NADPH generating system and UGT incubation system by phase II metabolic stability kit method. It is filed as ADME, Microsome. The following applies: dose 2 µg/ml, read-out: CLH.
Series [7] in a line: Microsomal stability in mouse liver microsomes assessed as half life measured at 2 ug/ml upto 60 mins in presence of NADPH generating system and UGT incubation system by phase II metabolic stability kit method. The following applies: dose 2 µg/ml. It is filed as ADME, Microsome.
The nature of series [8]: Metabolic stability in mouse plasma upto 5 hrs by HPLC-UV analysis. It counts as ADME, cell-free.
In the next series the test system is SH-SY5Y. As to the kind of experiment: Cytotoxicity against human SH-SY5Y cells expressing low level of topoisomerase I/II measured after 72 hrs by MTT assay. It counts as functional, cell-based.
The test system of a further series is MDA-MB-231. Briefly: Cytotoxicity against human MDA-MB-231 cells expressing high level of topoisomerase I/II measured after 72 hrs by MTT assay. It counts as functional, cell-based. The following applies: MDA-MB-231, 72 h.
The subject of series [9] is HCT-116. As to the kind of experiment: Cytotoxicity against human HCT-116 cells expressing high level of topoisomerase I/II measured after 72 hrs by MTT assay. It is filed as functional, cell-based. The following applies: HCT-116, 72 h.
The next series has as its system MCF7. As to the kind of experiment: Cytotoxicity against human MCF7 cells expressing high level of topoisomerase I/II measured after 72 hrs by MTT assay. It is filed as functional, cell-based. The following applies: MCF7, 72 h.
Series [10] concerns A-375. As to the kind of experiment: Cytotoxicity against human A-375 cells expressing high level of topoisomerase I/II measured after 72 hrs by MTT assay. It counts as functional, cell-based. The following applies: A-375, 72 h.
In the next series the test system is A549. As to the kind of experiment: Cytotoxicity against human A549 cells expressing high level of topoisomerase I/II measured after 72 hrs by MTT assay. It is filed as functional, cell-based. The following applies: A549, 72 h.
Series [11] can be described thus: Cytotoxicity against human L02 cells measured after 72 hrs by MTT assay. It counts as toxicity, cell-based.
Series [12] is described as follows: Cytotoxicity against human HEK293T cells measured after 72 hrs by MTT assay. It is filed as toxicity, cell-based, HEK-293T.
Series [13] in a line: Selectivity index, ratio of IC50 for human L02 cells to IC50 for human A-375 cells. It counts as toxicity. The following applies: L02 cells and A-375 cells, read-out: Ratio IC50.
The subject of series [14] is HCT-116. Briefly: Antiproliferative activity against doxorubicin resistant human HCT-116 cells measured after 72 hrs by MTT assay. It is filed as functional, cell-based. The following applies: HCT-116, 72 h.
Series [15] relates to HCT-116. Briefly: Antiproliferative activity against doxorubicin sensitive human HCT-116 cells measured after 72 hrs by MTT assay. The following applies: HCT-116, 72 h. It is filed as functional, cell-based.
The test system of series [16] is A-375. Briefly: Induction of cell cycle arrest in human A-375 cells assessed as accumulation of cells at G1 phase at 80 nM incubated for 24 hrs by PI based flow cytometric analysis (RVB = 52.94%). It is filed as functional.
For series [17], the system named is A-375. As to the kind of experiment: Induction of cell cycle arrest in human A-375 cells assessed as accumulation of cells at S phase at 80 nM incubated for 24 hrs by PI based flow cytometric analysis (RVB = 26.73%). It is filed as functional.
The test system of series [18] is A-375. As to the kind of experiment: Induction of cell cycle arrest in human A-375 cells assessed as accumulation of cells at G2 phase at 80 nM incubated for 24 hrs by PI based flow cytometric analysis (RVB = 20.34%). It is filed as functional.
Series [19] can be described thus: Clearance in Kunming mouse plasma at 10 mg/kg, iv administered as single dose measured after 5 to 360 mins by HPLC analysis. It is filed as ADME, organism-based. The following applies: time 5-360 min.
The test system of series [20] is A-375. As to the kind of experiment: In vivo antitumor activity against human A-375 cells xenografted in BALB/c nude mouse assessed as shrinkage of tumor tissue treated after 7 days of tumor implantation on right flank subcutaneously at 10 mg/kg, iv administered once per 2 days for 14 days measured once every two days. It counts as functional, organism-based. The following applies: time 14.0 day.

Series [21] concerns A-375. Briefly: In vivo antitumor activity against human A-375 cells xenografted in BALB/c nude mouse assessed as decrease in tumor weight treated after 7 days of tumor implantation on right flank subcutaneously at 10 mg/kg, iv administered once per 2 days for 14 days measured once every two days. It is filed as functional, organism-based. The following applies: time 14.0 day.

Series [22] can be described thus: Toxicity in BALB/c nude mouse xenografted with human A-375 cells assessed as body weight loss treated after 7 days of tumor implantation on right flank subcutaneously at 10 mg/kg, iv administered once per 2 days for 14 days measured once every two days. It counts as organism-based. The following applies: in vivo, 336 h, time 14 day.
Series [23] in a line: Toxicity in BALB/c nude mouse xenografted with human A-375 cells assessed as tolerability treated after 7 days of tumor implantation on right flank subcutaneously at 10 mg/kg, iv administered once per 2 days for 14 days measured once every two days. It counts as organism-based. The following applies: in vivo, 336 h, time 14 day.
Series [24] concerns A-375. As to the kind of experiment: In vivo induction of apoptosis in human A-375 cells xenografted in BALB/c nude mouse treated after 7 days of tumor implantation on right flank subcutaneously at 10 mg/kg, iv administered once per 2 days for 14 days by measuring TUNEL positive cells under a light microscope. It is filed as functional, organism-based. The following applies: time 14.0 day.

Series [25] relates to A-375. Briefly: In vivo induction of apoptosis in human A-375 cells xenografted in BALB/c nude mouse assessed as increase in C-caspase-3 level treated after 7 days of tumor implantation on right flank subcutaneously at 10 mg/kg, iv administered once per 2 days for 14 days by measuring TUNEL positive cells under a light microscope. It is filed as functional, organism-based. The following applies: time 14.0 day.

Series [26] has as its system A-375. As to the kind of experiment: In vivo induction of apoptosis in human A-375 cells xenografted in BALB/c nude mouse assessed as […] treated after 7 days of tumor implantation on right flank subcutaneously at 10 mg/kg, iv administered once per 2 days for 14 days by measuring TUNEL positive cells under a light microscope. It counts as functional, organism-based. The following applies: time 14.0 day.

Series [27] concerns the target T1, DNA topoisomerase 1 (Homo sapiens) (UniProt P11387).
T1 sequence (whole entry): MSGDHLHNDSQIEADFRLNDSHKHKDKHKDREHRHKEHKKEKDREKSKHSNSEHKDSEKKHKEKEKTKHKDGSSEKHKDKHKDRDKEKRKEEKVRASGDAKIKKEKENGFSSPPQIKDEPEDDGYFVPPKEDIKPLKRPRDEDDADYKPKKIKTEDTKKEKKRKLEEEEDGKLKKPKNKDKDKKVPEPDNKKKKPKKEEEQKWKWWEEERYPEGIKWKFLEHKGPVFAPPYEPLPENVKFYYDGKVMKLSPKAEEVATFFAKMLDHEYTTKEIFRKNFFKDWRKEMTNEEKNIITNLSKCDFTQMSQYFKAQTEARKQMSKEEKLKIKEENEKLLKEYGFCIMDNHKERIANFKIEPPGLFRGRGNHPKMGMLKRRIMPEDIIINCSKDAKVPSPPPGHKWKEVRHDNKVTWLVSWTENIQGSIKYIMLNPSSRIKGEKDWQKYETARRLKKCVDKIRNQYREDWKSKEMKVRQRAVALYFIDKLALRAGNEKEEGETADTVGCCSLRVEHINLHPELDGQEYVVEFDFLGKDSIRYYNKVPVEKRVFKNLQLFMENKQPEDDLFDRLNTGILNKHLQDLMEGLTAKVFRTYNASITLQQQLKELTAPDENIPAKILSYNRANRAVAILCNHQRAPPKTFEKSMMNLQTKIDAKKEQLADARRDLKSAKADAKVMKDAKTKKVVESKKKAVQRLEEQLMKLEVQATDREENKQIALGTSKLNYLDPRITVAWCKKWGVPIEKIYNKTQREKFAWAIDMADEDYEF
As to the kind of experiment: Inhibition of DNA topoisomerase I (unknown origin) relaxation activity at 100 uM incubated for 30 mins by chemiDoc system.

The target in series [28] is DNA topoisomerase 2-alpha (Homo sapiens) (UniProt P11388). As to the kind of experiment: Inhibition of human DNA topoisomerase II-alpha relaxation activity at 100 uM incubated for 30 mins by chemiDoc system.
DNA topoisomerase 2-alpha (Homo sapiens), sequence (P11388 whole entry): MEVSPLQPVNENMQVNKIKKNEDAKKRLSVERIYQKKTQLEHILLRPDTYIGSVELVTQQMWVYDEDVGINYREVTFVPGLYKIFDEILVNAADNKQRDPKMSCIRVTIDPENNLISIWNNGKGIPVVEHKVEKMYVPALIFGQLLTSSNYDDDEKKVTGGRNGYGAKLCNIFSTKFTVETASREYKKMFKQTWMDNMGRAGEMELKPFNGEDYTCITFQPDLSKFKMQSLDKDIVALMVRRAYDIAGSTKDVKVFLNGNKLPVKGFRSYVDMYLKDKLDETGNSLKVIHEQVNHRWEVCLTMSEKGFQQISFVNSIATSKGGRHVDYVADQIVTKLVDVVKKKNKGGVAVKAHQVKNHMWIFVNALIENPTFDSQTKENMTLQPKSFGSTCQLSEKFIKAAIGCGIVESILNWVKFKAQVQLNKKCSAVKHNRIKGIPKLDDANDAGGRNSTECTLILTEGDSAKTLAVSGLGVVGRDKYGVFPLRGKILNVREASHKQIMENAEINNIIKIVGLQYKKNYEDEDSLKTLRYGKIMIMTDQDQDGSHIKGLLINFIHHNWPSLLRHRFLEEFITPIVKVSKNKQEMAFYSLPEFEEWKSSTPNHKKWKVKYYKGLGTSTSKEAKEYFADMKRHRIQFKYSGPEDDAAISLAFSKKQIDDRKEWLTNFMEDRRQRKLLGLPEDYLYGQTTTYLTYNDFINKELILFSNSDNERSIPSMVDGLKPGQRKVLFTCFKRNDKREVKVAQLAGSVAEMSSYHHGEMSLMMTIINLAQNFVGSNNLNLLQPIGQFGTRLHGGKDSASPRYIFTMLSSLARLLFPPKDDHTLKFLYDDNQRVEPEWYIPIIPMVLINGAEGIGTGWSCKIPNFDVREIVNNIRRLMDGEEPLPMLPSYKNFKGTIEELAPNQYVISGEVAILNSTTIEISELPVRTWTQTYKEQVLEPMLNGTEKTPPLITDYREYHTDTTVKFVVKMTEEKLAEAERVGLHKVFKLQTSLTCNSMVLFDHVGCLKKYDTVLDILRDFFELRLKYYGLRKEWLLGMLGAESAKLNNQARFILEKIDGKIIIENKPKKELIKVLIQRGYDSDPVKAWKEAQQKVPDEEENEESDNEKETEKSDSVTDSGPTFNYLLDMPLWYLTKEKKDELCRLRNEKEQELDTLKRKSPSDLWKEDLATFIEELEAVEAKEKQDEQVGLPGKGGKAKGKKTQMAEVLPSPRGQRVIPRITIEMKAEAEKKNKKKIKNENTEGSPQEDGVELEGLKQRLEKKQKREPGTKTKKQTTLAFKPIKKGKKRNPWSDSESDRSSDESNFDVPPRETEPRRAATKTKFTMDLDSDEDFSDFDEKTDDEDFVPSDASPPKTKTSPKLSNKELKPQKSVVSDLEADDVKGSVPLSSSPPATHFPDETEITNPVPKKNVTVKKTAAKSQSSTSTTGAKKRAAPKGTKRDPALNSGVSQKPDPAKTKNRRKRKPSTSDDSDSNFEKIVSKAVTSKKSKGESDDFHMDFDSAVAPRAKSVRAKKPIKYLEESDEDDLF
Series [29] has the same target. Briefly: Poison activity at human topoisomerase II-alpha assessed as stabilization of enzyme-DNA cleavage complex by measuring nicked DNA formation at 100 uM after 60 mins by agarose gel electrophoresis method.

The compound `COc1cc([C@@H]2c3cc4c(cc3[C@@H](O[C@@H]3O[C@@H]5CO[C@@H](C)O[C@H]5[C@H](O)[C@H]3O)[C@H]3COC(=O)[C@H]23)OCO4)cc(OC)c1O` [ETOPOSIDE] came in with a Vd in series [1] of 0.432 L/kg. The same compound displayed a half-life in series [2] of 45 min. For the same compound, the Tmax in series [3] is 5 min. The same compound had a Cmax in series [4] of 17700 ng/mL. Further, the AUC in series [5] is 6830 ng·h/mL. The microsomal CLint at 2 ug/ml in series [6] turned out to be 66 µL/min/mg. The half-life at 2 ug/ml in series [7] came to 21 min. For the same compound, in series [8], the Stability result is “Stable”. In addition, the pIC50 with SH-SY5Y was 6.05; in the series on MDA-MB-231, 6.29; with HCT-116 [9], 6.42; in the series with MCF7, 6.10; in the series on A-375 [10] it was 6.55; in the series with A549, 6.22. In addition, the pIC50 in the series with HCT-116 [14] was 5.45; with HCT-116 [15] it was 6.43. Further, the IC50 at 72 h in [11] was found to be 1220 nM; in [12], 1390 nM. Further, the selectivity ratio in series [13] is less than 5. Further, the Activity in the series with A-375 [16] is 56.15%; in the series with A-375 [17], 31.79%; in the series on A-375 [18], 12.07%; in series [22], “Toxic”; in [23] it was “Toxic”. Moreover, the clearance in series [19] was found to be 7 mL/min/kg. Further, the outcome in the series with A-375 [20], with A-375 [21], in the series on A-375 [24], in the series with A-375 [25] and in the series on A-375 [26] was Active.

Turning to `CN1CCN(CCCCn2c3c(c4ccccc42)C(=O)c2c[n+]([O-])c4ccccc4c2C3=O)CC1`, the pIC50 in the series on SH-SY5Y was 7.00; with MDA-MB-231 it was 6.96; in the series with HCT-116 [9], 8.00; in the series on MCF7, 7.00; in the series on A-375 [10], 7.52; with A549, 7.05. Moreover, the IC50 at 72 h in [11] turned out to be 80 nM; in series [12] it was 100 nM. Besides, the inhibition result in [27] and in series [28] was “Active” in each case. In addition, the result in series [29] was Active.

For the origin of these results see ChEMBL document CHEMBL5154929, “Optimization of the Natural Product Calothrixin A to Discover Novel Dual Topoisomerase I and II Inhibitors with Improved Anticancer Activity” (J Med Chem, 2022).
